Assay: method code SF-AS, from DOI: 10.1016/j.ejmech.2011.01.053, PMID: 21334792
Details: pH 7.4
In the case of CC1(O)c2ccccc2-c2c1c(-n1ccnc1)nc1ccc(Br)cc21 (stereo not drawn), the logD is reported as 1.73.
CN(C)C(=O)ON=C1c2ccccc2-c2c1c(N1CCN(c3ccccn3)CC1)nc1ccc(Br)cc21 showed a logD of 2.34.
In the case of ON=C1c2ccccc2-c2c1c(C1C=CN=C1)nc1ccc(Br)cc21 (stereo not drawn), the logD is reported as 0.23.
In the case of CC(C)(C)OC(=O)NC(Cc1cccc(F)c1)ON=C1c2ccccc2-c2c1c(N1CCN(c3ccccn3)CC1)nc1ccc(Br)cc21 (stereo not drawn), the logD is reported as 1.14.
For CCCCCCC(=O)ON=C1c2ccccc2-c2c1c(C1C=CN=C1)nc1ccc(Br)cc21 (stereo not drawn), the logD was 1.51.
For CC1(OC(=O)CC(F)(F)F)c2ccccc2-c2c1c(-n1ccnc1)nc1ccc(Br)cc21 (stereo not drawn), the logD was 1.83.
Molecule CCC(=O)ON=C1c2ccccc2-c2c1c(N1CCN(c3ccccn3)CC1)nc1ccc(Br)cc21 has a logD of 2.65.
CC(=O)NCC(=O)ON=C1c2ccccc2-c2c1c(N1CCN(c3ccccn3)CC1)nc1ccc(Br)cc21 showed a logD of 1.18.
O=C(C=Cc1ccco1)ON=C1C2=C(c3ccccc31)c1c(Br)cccc1NC2N1CCN(c2ccccn2)CC1 (stereo not drawn) showed a logD of 1.43.
With CC(C)(C)OC(=O)NCC(=O)ON=C1c2ccccc2-c2c1c(N1CCN(c3ccccn3)CC1)nc1cccc(Br)c21 the logD was 0.7.
Work on CC(C)(C)C(=O)NC(C(=O)ON=C1c2ccccc2-c2c1c(N1CCN(c3ccccn3)CC1)nc1ccc(Br)cc21)C(C)(C)C (stereo not drawn) yielded a logD of 1.5.
CCCCCC(=O)ON=C1c2ccccc2-c2c1c(N1CCN(c3ccc[nH]3)CC1)nc1ccc(Br)cc21 showed a logD of 2.06.
With CC(=O)ON=C1c2ccccc2-c2c1c(C1C=CN=C1)nc1ccc(Br)cc21 (stereo not drawn) the logD was 1.11.
For CCCCC(=O)ON=C1c2ccccc2-c2c1c(C1C=CN=C1)nc1ccc(Br)cc21 (stereo not drawn), the logD was 1.64.
O=C(CCCCBr)ON=C1c2ccccc2-c2c1c(N1CCN(c3ccccn3)CC1)nc1ccc(Br)cc21 gave a logD of 1.47.
In the case of CCCC(=O)O/N=C1\c2ccccc2-c2c1c(-n1ccnc1)nc1ccc(Br)cc21, the logD is reported as 1.17.
For CC(C)(C)OC(=O)N1CCCC1C(=O)O/N=C1\c2ccccc2-c2c1c(-n1ccnc1)nc1ccc(Br)cc21 (stereo not drawn), the logD was 1.28.
For CCCCCC(=O)ON=C1c2ccccc2-c2c1c(C1C=CN=C1)nc1ccc(Br)cc21 (stereo not drawn), the logD was 2.11.
